Here are results for 33 molecules from patent US12006321B2, “Substituted pyrazolo[1,5-a]pyrimidines as apelin receptor agonists” (Sanford Burnham Prebys Medical Discovery Institute, priority 2017, dated 2024).

In this assay the target is T1, human apelin receptor (APJ, APLNR) (Homo sapiens, UniProt P35414).
T1 construct: host or cells: Chinese hamster ovary (CHO) cells, stably integrated receptor
T1 sequence (P35414 1-380): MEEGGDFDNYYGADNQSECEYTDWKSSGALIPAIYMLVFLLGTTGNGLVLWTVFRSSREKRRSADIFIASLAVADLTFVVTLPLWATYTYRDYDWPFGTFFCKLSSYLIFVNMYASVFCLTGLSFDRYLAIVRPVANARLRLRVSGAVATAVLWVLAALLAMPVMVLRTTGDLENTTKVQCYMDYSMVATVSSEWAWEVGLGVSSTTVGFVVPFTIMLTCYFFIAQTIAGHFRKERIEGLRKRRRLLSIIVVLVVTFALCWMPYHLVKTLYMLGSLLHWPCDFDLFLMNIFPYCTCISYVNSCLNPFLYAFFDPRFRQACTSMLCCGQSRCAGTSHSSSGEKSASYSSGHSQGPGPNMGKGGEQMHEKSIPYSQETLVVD
Put plainly: cell-based cAMP assay (TR-FRET) in Chinese hamster ovary cells expressing the apelin receptor. Particulars: EC50 = 50% of control (apelin-13, 1 nM) response; cAMP in CHO cells, 0.5 h incubation; read-out: Potency Category. In outline: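 CHO cells stably expressing human APJ were forskolin-stimulated, then exposed to compound (0.0-100 μM, ≤1% DMSO) for 0.5 h. Lysate cAMP read by competitive TR-FRET immunoassay; EC50 and efficacy expressed relative to 1 nM apelin-13, four-parameter fit over ≥10 concentrations.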
In general terms: Cyclic AMP is a second messenger, typically raised through Gs and lowered through Gi signalling.
As for `CCOC(=O)c1cc(C(C)C)n2nc(C)c(-c3c(C)cccc3OC)c2n1` [Compound 65, ethyl 3-(6-methoxy-2-methylphenyl)-2-methyl-7-(methylethyl)-8-hydropyrazolo[1,5-a]pyrimidine-5-carboxylate], the EC50 is over 0.5 µM. Regarding `CCCN(C)c1cc(C(=O)O)nc2c(-c3c(C)cccc3C)c(C)nn12` [Compound 153, 3-(2,6-dimethylphenyl)-2-methyl-7-(methylpropylamino)-8-hydropyrazolo[1,5-a]pyrimidine-5-carboxylic acid], the EC50 is over 0.5 µM.

In the case of `CCOC(=O)c1cc(C(C)C)n2nc(C)c(-c3c(Cl)cccc3Cl)c2n1` [Compound 114, ethyl 3-(2,6-dichlorophenyl)-2-methyl-7-(methylethyl)-8-hydropyrazolo[1,5-a]pyrimidine-5-carboxylate], the EC50 was over 0.5 µM. Then `CCOC(=O)c1cc(C(C)C)n2ncc(-c3c(C)cccc3C)c2n1` [Compound 52, ethyl 3-(2,6-dimethylphenyl)-7-(methylethyl)-8-hydropyrazolo[1,5-a]pyrimidine-5-carboxylate], with over 0.5 µM; and `Cc1nn2c(C(C)C)c(C)c(C(=O)O)nc2c1-c1ccccc1` [Compound 38, 2,6-dimethyl-7-(methylethyl)-3-phenyl-8-hydropyrazolo[1,5-a]pyrimidine-5-carboxylic acid], with over 0.5 µM. Then `CNC(=O)c1cc(C(C)C)n2nc(C)c(-c3ccccc3)c2n1` [Compound 15, N-methyl[2-methyl-7-(methylethyl)-3-phenyl(8-hydropyrazolo[1,5-a]pyrimidin-5-yl)]carboxamide], with over 0.5 µM; and `CC(C)c1cc(C(=O)O)nc2c(-c3ccccc3)c(C3CC3)nn12` [Compound 12, 2-cyclopropyl-7-(methylethyl)-3-phenyl-8-hydropyrazolo[1,5-a]pyrimidine-5-carboxylic acid], with over 0.5 µM; and `Cc1cccc(C)c1-c1c(C)nn2c(C3CCCCC3)cc(C(=O)O)nc12` [Compound 155, 3-(2,6-dimethylphenyl)-7-cyclohexyl-2-methyl-8-hydropyrazolo[1,5-a]pyrimidine-5-carboxylic acid], with over 0.5 µM. For the molecule `Cc1nn2c(C(C)C)cc(C(=O)O)nc2c1-c1c(F)cccc1F` [Compound 104, 3-(2,6-difluorophenyl)-2-methyl-7-(methylethyl)-8-hydropyrazolo[1,5-a]pyrimidine-5-carboxylic acid], the EC50 is over 0.5 µM. Then `COc1cc(C(=O)O)nc2c(-c3c(C)cccc3C)c(C)nn12` [Compound 99, 3-(2,6-dimethylphenyl)-7-methoxy-2-methyl-8-hydropyrazolo[1,5-a]pyrimidine-5-carboxylic acid], with over 0.5 µM; and `CCOC(=O)c1cc(C(C)C)n2nc(C)c(-c3cccc(F)c3)c2n1` [Compound 25, ethyl 3-(3-fluorophenyl)-2-methyl-7-(methylethyl)-8-hydropyrazolo[1,5-a]pyrimidine-5-carboxylate], with over 0.5 µM. Then `Cc1ccccc1-c1c(C)nn2c(C(C)C)cc(C(=O)O)nc12` [Compound 20, 2-methyl-7-(methylethyl)-3-(2-methylphenyl)-8-hydropyrazolo[1,5-a]pyrimidine-5-carboxylic acid], with 0.1 to 0.2 µM; and `Cc1nn2c(C(C)C)cc(C(N)=O)nc2c1-c1ccccc1` [Compound 14, 2-methyl-7-(methylethyl)-3-phenyl-8-hydropyrazolo[1,5-a]pyrimidine-5-carboxamide], with over 0.5 µM. With `CCOC(=O)c1cc(C)n2nc(C)c(-c3c(C)cccc3C)c2n1` [Compound 56, ethyl 3-(2,6-dimethylphenyl)-2,7-dimethyl-8-hydropyrazolo[1,5-a]pyrimidine-5-carboxylate], the EC50 is over 0.5 µM. Then `Cc1ccc(-c2c(C)nn3c(C(C)C)cc(C(=O)O)nc23)c(C)c1` [Compound 45, 3-(2,4-dimethylphenyl)-2-methyl-7-(methylethyl)-8-hydropyrazolo[1,5-a]pyrimidine-5-carboxylic acid], with over 0.5 µM; and `COC(=O)c1cc(Nc2ccc(OC)cc2)n2nc(C)c(-c3c(C)cccc3C)c2n1` [Compound 135, methyl 3-(2,6-dimethylphenyl)-7-[(4-methoxyphenyl)amino]-2-methyl-8-hydropyrazolo[1,5-a]pyrimidine-5-carboxylate], with over 0.5 µM; and `CCOC(=O)c1cc(C(C)C)n2nc(C)c(-c3ccccc3OC)c2n1` [Compound 29, ethyl 3-(2-methoxyphenyl)-2-methyl-7-(methylethyl)-8-hydropyrazolo[1,5-a]pyrimidine-5-carboxylate], with over 0.5 µM.

With `COCc1cccc(C)c1-c1c(C)nn2c(C(C)C)cc(C(=O)O)nc12` [Compound 131, 3-[6-(methoxymethyl)-2-methylphenyl]-2-methyl-7-(methylethyl)-8-hydropyrazolo[1,5-a]pyrimidine-5-carboxylic acid], the EC50 is under 0.1 µM.

In the case of `Cc1cccc(C)c1-c1c(C)nn2c(Nc3ccc(F)cc3)cc(C(=O)O)nc12` [Compound 139, 3-(2,6-dimethylphenyl)-7-[(4-fluorophenyl)amino]-2-methyl-8-hydropyrazolo[1,5-a]pyrimidine-5-carboxylic acid], the EC50 is over 0.5 µM.

With `CCOC(=O)c1cc(C(C)C)n2nc(C)c(-c3c(C)cc(F)cc3C)c2n1` [Compound 47, ethyl 3-(4-fluoro-2,6-dimethylphenyl)-2-methyl-7-(methylethyl)-8-hydropyrazolo[1,5-a]pyrimidine-5-carboxylate], the EC50 was over 0.5 µM. As for `Cc1cccc(C)c1-c1c(C)nn2c(C(C)C)cc(C(=O)NO)nc12` [Compound 75, 3-(2,6-dimethylphenyl)-2-methyl-7-(methylethyl)-8-hydropyrazolo[1,5-a]pyrimidine-5-carbohydroxamic acid], the EC50 lay within 0.1 to 0.2 µM. As for `COC(=O)c1cc(Nc2ccc(C)cc2)n2nc(C)c(-c3c(C)cccc3C)c2n1` [Compound 134, methyl 3-(2,6-dimethylphenyl)-2-methyl-7-[(4-methylphenyl)amino]-8-hydropyrazolo[1,5-a]pyrimidine-5-carboxylate], the EC50 is over 0.5 µM. As to `CCOC(=O)c1cc(CC)n2nc(C)c(-c3ccccc3)c2n1` [Compound 33, ethyl 7-ethyl-2-methyl-3-phenyl-8-hydropyrazolo[1,5-a]pyrimidine-5-carboxylate], the EC50 was over 0.5 µM. Then `Cc1ccc(N(C)c2cc(C(=O)O)nc3c(-c4c(C)cccc4C)c(C)nn23)cc1` [Compound 150, 3-(2,6-dimethylphenyl)-2-methyl-7-[methyl(4-methylphenyl)amino]-8-hydropyrazolo[1,5-a]pyrimidine-5-carboxylic acid], with over 0.5 µM; and `Cc1cccc(-c2c(C)nn3c(C(C)C)cc(C(=O)O)nc23)c1` [Compound 28, 2-methyl-7-(methylethyl)-3-(3-methylphenyl)-8-hydropyrazolo[1,5-a]pyrimidine-5-carboxylic acid], with over 0.5 µM; and `COc1cccc(OC)c1-c1c(C)nn2c(C(C)C)cc(C(=O)O)nc12` [Compound 42, 3-(2,6-dimethoxyphenyl)-2-methyl-7-(methylethyl)-8-hydropyrazolo[1,5-a]pyrimidine-5-carboxylic acid], with over 0.5 µM.

In the case of `Cc1cccc(C)c1-c1c(C)nn2c(C)cc(C(=O)O)nc12` [Compound 57, 3-(2,6-dimethylphenyl)-2,7-dimethyl-8-hydropyrazolo[1,5-a]pyrimidine-5-carboxylic acid], the EC50 was over 0.5 µM.

On to `Cc1cccc(CO)c1-c1c(C)nn2c(C(C)C)cc(C(=O)O)nc12` [Compound 128, 3-[6-(hydroxymethyl)-2-methylphenyl]-2-methyl-7-(methylethyl)-8-hydropyrazolo[1,5-a]pyrimidine-5-carboxylic acid], for which the EC50 was under 0.1 µM. For the molecule `Cc1cccc(C)c1-c1c(C)nn2c(N3CCNCC3)cc(C(=O)O)nc12` [Compound 152, 3-(2,6-dimethylphenyl)-2-methyl-7-piperazinyl-8-hydropyrazolo[1,5-a]pyrimidine-5-carboxylic acid], the EC50 is over 0.5 µM. Then `Cc1cccc(C)c1-c1c(C)nn2c(C3CCC3)cc(C(=O)O)nc12` [Compound 61, 3-(2,6-dimethylphenyl)-7-cyclobutyl-2-methyl-8-hydropyrazolo[1,5-a]pyrimidine-5-carboxylic acid], with 0.1 to 0.2 µM; and `COC(=O)c1cc(Cl)n2nc(C)c(-c3c(C)cccc3C)c2n1` [Compound 159, methyl 3-(2,6-dimethylphenyl)-7-chloro-2-methyl-8-hydropyrazolo[1,5-a]pyrimidine-5-carboxylate], with over 0.5 µM; and `Cc1cccc(C)c1-c1c(C)nn2c(Nc3ccc(OC(F)(F)F)cc3)cc(C(=O)O)nc12` [Compound 144, 3-(2,6-dimethylphenyl)-2-methyl-7-{[4-(trifluoromethoxy)phenyl]amino}-8-hydropyrazolo[1,5-a]pyrimidine-5-carboxylic acid], with over 0.5 µM. Then `Cc1cccc(C)c1-c1c(C)nn2c(C(C)C)cc(C(O)C(F)(F)F)nc12` (stereo not drawn) [Compound 63, 1-[3-(2,6-dimethylphenyl)-2-methyl-7-(methylethyl)(8-hydropyrazolo[1,5-a]pyrimidin-5-yl)]-2,2,2-trifluoroethan-1-ol], with over 0.5 µM.
